Reference: ChEMBL document CHEMBL2046376, “Synthesis and antimicrobial activity of amide derivatives of polyether antibiotic-salinomycin” (2012)
The source made the active and inactive calls.

Key:
Assay type in all cases: functional
Staphylococcus aureus [1] = assay: Antibacterial activity against hospital-acquired methicillin-resistant Staphylococcus aureus 401/10 after 18 hrs by twofold serial agar dilution technique; conditions: 401/10, 18 h
Staphylococcus aureus [2] = assay: Antibacterial activity against hospital-acquired methicillin-sensitive Staphylococcus aureus 442/11 after 18 hrs by twofold serial agar dilution technique; conditions: 442/11, 18 h
Staphylococcus aureus [3] = assay: Antibacterial activity against Staphylococcus aureus ATCC 29213 assessed as zone of inhibition at 400 ug/disc after 18 hrs by disc diffusion method; conditions: ATCC 29213, 18 h, read-out: DIZ
Staphylococcus aureus [4] = assay: Antibacterial activity against hospital-acquired methicillin-sensitive Staphylococcus aureus 440/11 after 18 hrs by twofold serial agar dilution technique; conditions: 440/11, 18 h
[5] = system: Bordetella bronchiseptica; assay: Antibacterial activity against Bordetella bronchiseptica ATCC 4617 after 18 hrs by twofold serial agar dilution technique
Staphylococcus aureus [6] = assay: Antibacterial activity against hospital-acquired methicillin-resistant Staphylococcus aureus 481/11 after 18 hrs by twofold serial agar dilution technique; conditions: 481/11, 18 h
Pseudomonas aeruginosa [7] = assay: Antibacterial activity against Pseudomonas aeruginosa ATCC 15442 after 18 hrs by twofold serial agar dilution technique
Pseudomonas aeruginosa [8] = assay: Antibacterial activity against Pseudomonas aeruginosa ATCC 27853 after 18 hrs by twofold serial agar dilution technique
Staphylococcus aureus [9] = assay: Antibacterial activity against Staphylococcus aureus ATCC 25923 assessed as zone of inhibition at 400 ug/disc after 18 hrs by disc diffusion method; conditions: ATCC 25923, 18 h, read-out: DIZ
Staphylococcus aureus [10] = assay: Antibacterial activity against hospital-acquired methicillin-resistant Staphylococcus aureus 450/11 after 18 hrs by twofold serial agar dilution technique; conditions: 450/11, 18 h
Staphylococcus aureus [11] = assay: Antibacterial activity against hospital-acquired methicillin-resistant Staphylococcus aureus 393/10 after 18 hrs by twofold serial agar dilution technique; conditions: 393/10, 18 h
Staphylococcus aureus [12] = assay: Antibacterial activity against hospital-acquired methicillin-resistant Staphylococcus aureus 399/10 after 18 hrs by twofold serial agar dilution technique; conditions: 399/10, 18 h
Pseudomonas aeruginosa [13] = assay: Antibacterial activity against Pseudomonas aeruginosa NCTC 6749 after 18 hrs by twofold serial agar dilution technique
Staphylococcus aureus [14] = assay: Antibacterial activity against hospital-acquired methicillin-resistant Staphylococcus aureus 451/11 after 18 hrs by twofold serial agar dilution technique; conditions: 451/11, 18 h
Candida albicans [15] = assay: Antifungal activity against Candida albicans ATCC 10231 after 24 hrs by twofold serial agar dilution technique
Staphylococcus aureus [16] = assay: Antibacterial activity against hospital-acquired methicillin-resistant Staphylococcus aureus 400/10 after 18 hrs by twofold serial agar dilution technique; conditions: 400/10, 18 h
Escherichia coli [17] = assay: Antibacterial activity against Escherichia coli NCTC 8196 after 18 hrs by twofold serial agar dilution technique
Staphylococcus aureus [18] = assay: Antibacterial activity against Staphylococcus aureus NCTC 4163 assessed as zone of inhibition at 400 ug/disc after 18 hrs by disc diffusion method; conditions: NCTC 4163, 18 h, read-out: DIZ
Candida parapsilosis = assay: Antifungal activity against Candida parapsilosis ATCC 22019 after 24 hrs by twofold serial agar dilution technique
Staphylococcus aureus [19] = assay: Antibacterial activity against Staphylococcus aureus ATCC 6538 after 18 hrs by twofold serial agar dilution technique; conditions: ATCC 6538, 18 h
Staphylococcus aureus [20] = assay: Antibacterial activity against Staphylococcus aureus ATCC 25923 after 18 hrs by twofold serial agar dilution technique; conditions: ATCC 25923, 18 h
Candida albicans [21] = assay: Antifungal activity against Candida albicans ATCC 90028 after 24 hrs by twofold serial agar dilution technique
Staphylococcus aureus [22] = assay: Antibacterial activity against hospital-acquired methicillin-sensitive Staphylococcus aureus 447/11 after 18 hrs by twofold serial agar dilution technique; conditions: 447/11, 18 h
Staphylococcus aureus [23] = assay: Antibacterial activity against hospital-acquired methicillin-sensitive Staphylococcus aureus 448/11 after 18 hrs by twofold serial agar dilution technique; conditions: 448/11, 18 h
[24] = system: Staphylococcus epidermidis; assay: Antibacterial activity against Staphylococcus epidermidis ATCC 35984 assessed as zone of inhibition at 400 ug/disc after 18 hrs by disc diffusion method; conditions: ATCC 35984, 18 h, read-out: DIZ
[25] = system: Staphylococcus epidermidis; assay: Antibacterial activity against Staphylococcus epidermidis ATCC 12228 after 18 hrs by twofold serial agar dilution technique; conditions: ATCC 12228, 18 h
Staphylococcus aureus [26] = assay: Antibacterial activity against hospital-acquired methicillin-sensitive Staphylococcus aureus 443/11 after 18 hrs by twofold serial agar dilution technique; conditions: 443/11, 18 h
Escherichia coli [27] = assay: Antibacterial activity against Escherichia coli ATCC 25922 after 18 hrs by twofold serial agar dilution technique
Staphylococcus aureus [28] = assay: Antibacterial activity against hospital-acquired methicillin-resistant Staphylococcus aureus 452/11 after 18 hrs by twofold serial agar dilution technique; conditions: 452/11, 18 h
[29] = system: Staphylococcus epidermidis; assay: Antibacterial activity against Staphylococcus epidermidis ATCC 12228 assessed as zone of inhibition at 400 ug/disc after 18 hrs by disc diffusion method; conditions: ATCC 12228, 18 h, read-out: DIZ
Staphylococcus aureus [30] = assay: Antibacterial activity against hospital-acquired methicillin-sensitive Staphylococcus aureus 444/11 after 18 hrs by twofold serial agar dilution technique; conditions: 444/11, 18 h
Staphylococcus aureus [31] = assay: Antibacterial activity against Staphylococcus aureus ATCC 29213 after 18 hrs by twofold serial agar dilution technique; conditions: ATCC 29213, 18 h
Staphylococcus aureus [32] = assay: Antibacterial activity against hospital-acquired methicillin-sensitive Staphylococcus aureus 441/11 after 18 hrs by twofold serial agar dilution technique; conditions: 441/11, 18 h
Staphylococcus aureus [33] = assay: Antibacterial activity against Staphylococcus aureus NCTC 4163 after 18 hrs by twofold serial agar dilution technique; conditions: NCTC 4163, 18 h
Staphylococcus aureus [34] = assay: Antibacterial activity against hospital-acquired methicillin-sensitive Staphylococcus aureus 449/11 after 18 hrs by twofold serial agar dilution technique; conditions: 449/11, 18 h
Staphylococcus aureus [35] = assay: Antibacterial activity against hospital-acquired methicillin-sensitive Staphylococcus aureus 445/11 after 18 hrs by twofold serial agar dilution technique; conditions: 445/11, 18 h
Staphylococcus aureus [36] = assay: Antibacterial activity against hospital-acquired methicillin-resistant Staphylococcus aureus 394/10 after 18 hrs by twofold serial agar dilution technique; conditions: 394/10, 18 h
Proteus vulgaris = assay: Antibacterial activity against Proteus vulgaris NCTC 4635 after 18 hrs by twofold serial agar dilution technique
Staphylococcus aureus [37] = assay: Antibacterial activity against hospital-acquired methicillin-resistant Staphylococcus aureus 482/11 after 18 hrs by twofold serial agar dilution technique; conditions: 482/11, 18 h
Escherichia coli [38] = assay: Antibacterial activity against Escherichia coli ATCC 10538 after 18 hrs by twofold serial agar dilution technique
Staphylococcus aureus [39] = assay: Antibacterial activity against hospital-acquired methicillin-sensitive Staphylococcus aureus 446/11 after 18 hrs by twofold serial agar dilution technique; conditions: 446/11, 18 h
[40] = system: Staphylococcus epidermidis; assay: Antibacterial activity against Staphylococcus epidermidis ATCC 35984 after 18 hrs by twofold serial agar dilution technique; conditions: ATCC 35984, 18 h
Staphylococcus aureus [41] = assay: Antibacterial activity against Staphylococcus aureus ATCC 6538 assessed as zone of inhibition at 400 ug/disc after 18 hrs by disc diffusion method; conditions: ATCC 6538, 18 h, read-out: DIZ
Staphylococcus aureus [42] = assay: Antibacterial activity against methicillin-resistant Staphylococcus aureus clinical isolate

CC[C@@H](C(=O)[C@@H](C)[C@@H](O)[C@H](C)[C@@H]1O[C@@H]([C@@H](CC)C(=O)NCCCN2CCCCC2)CC[C@@H]1C)[C@H]1O[C@]2(C=C[C@@H](O)[C@]3(CC[C@@](C)([C@H]4CC[C@](O)(CC)[C@H](C)O4)O3)O2)[C@H](C)C[C@@H]1C
32 µg/mL: MIC (Staphylococcus aureus [2]) | MIC (Staphylococcus aureus [4]) | MIC (Staphylococcus aureus [14]) | MIC (Staphylococcus aureus [22]) | MIC (Staphylococcus aureus [23]) | MIC (Staphylococcus aureus [26]) | MIC (Staphylococcus aureus [28]) | MIC (Staphylococcus aureus [30]) | MIC (Staphylococcus aureus [34]) | MIC (Staphylococcus aureus [35])
128 µg/mL: MIC (Staphylococcus aureus [19]) | MIC (Staphylococcus aureus [20]) | MIC [25] | MIC (Staphylococcus aureus [31]) | MIC (Staphylococcus aureus [33])
12 mm: zone of inhibition at 400 µg/disc (Staphylococcus aureus [18])
64 µg/mL: MIC (Staphylococcus aureus [1]) | MIC (Staphylococcus aureus [6]) | MIC (Staphylococcus aureus [10]) | MIC (Staphylococcus aureus [11]) | MIC (Staphylococcus aureus [12]) | MIC (Staphylococcus aureus [16]) | MIC (Staphylococcus aureus [32]) | MIC (Staphylococcus aureus [36]) | MIC (Staphylococcus aureus [37]) | MIC (Staphylococcus aureus [39])
256 µg/mL: MIC [40]
11 mm: zone of inhibition at 400 µg/disc (Staphylococcus aureus [3]) | zone of inhibition at 400 µg/disc (Staphylococcus aureus [9]) | zone of inhibition at 400 µg/disc [24] | zone of inhibition at 400 µg/disc [29]
inactive: Activity [5] | Activity (Pseudomonas aeruginosa [7]) | Activity (Pseudomonas aeruginosa [8]) | Activity (Pseudomonas aeruginosa [13]) | Activity (Candida albicans [15]) | Activity (Escherichia coli [17]) | Activity (Candida parapsilosis) | Activity (Candida albicans [21]) | Activity (Escherichia coli [27]) | Activity (Proteus vulgaris) | Activity (Escherichia coli [38])
13 mm: zone of inhibition at 400 µg/disc (Staphylococcus aureus [41])

CC[C@@H](C(=O)[C@@H](C)[C@@H](O)[C@H](C)[C@@H]1O[C@@H]([C@@H](CC)C(=O)O)CC[C@@H]1C)[C@H]1O[C@]2(C=C[C@@H](O)[C@]3(CC[C@@](C)([C@H]4CC[C@](O)(CC)[C@H](C)O4)O3)O2)[C@H](C)C[C@@H]1C [SALINOMYCIN]
inactive: Activity [5] | Activity (Pseudomonas aeruginosa [7]) | Activity (Pseudomonas aeruginosa [8]) | Activity (Pseudomonas aeruginosa [13]) | Activity (Candida albicans [15]) | Activity (Escherichia coli [17]) | Activity (Candida parapsilosis) | Activity (Candida albicans [21]) | Activity (Escherichia coli [27]) | Activity (Proteus vulgaris) | Activity (Escherichia coli [38])
33 mm: zone of inhibition at 400 µg/disc (Staphylococcus aureus [18])
29 mm: zone of inhibition at 400 µg/disc (Staphylococcus aureus [3])
28 mm: zone of inhibition at 400 µg/disc [29]
1 µg/mL: MIC (Staphylococcus aureus [1]) | MIC (Staphylococcus aureus [4]) | MIC (Staphylococcus aureus [6]) | MIC (Staphylococcus aureus [12]) | MIC (Staphylococcus aureus [42]) | MIC (Staphylococcus aureus [16]) | MIC (Staphylococcus aureus [28]) | MIC (Staphylococcus aureus [34]) | MIC (Staphylococcus aureus [35]) | MIC (Staphylococcus aureus [39])
2 µg/mL: MIC (Staphylococcus aureus [2]) | MIC (Staphylococcus aureus [10]) | MIC (Staphylococcus aureus [11]) | MIC (Staphylococcus aureus [14]) | MIC (Staphylococcus aureus [19]) | MIC (Staphylococcus aureus [20]) | MIC (Staphylococcus aureus [22]) | MIC (Staphylococcus aureus [23]) | MIC [25] | MIC (Staphylococcus aureus [26]) | MIC (Staphylococcus aureus [30]) | MIC (Staphylococcus aureus [31]) | MIC (Staphylococcus aureus [32]) | MIC (Staphylococcus aureus [33]) | MIC (Staphylococcus aureus [36]) | MIC (Staphylococcus aureus [37]) | MIC [40]
30 mm: zone of inhibition at 400 µg/disc [24] | zone of inhibition at 400 µg/disc (Staphylococcus aureus [41])
31 mm: zone of inhibition at 400 µg/disc (Staphylococcus aureus [9])
